Data from PMC8745178, “Methyl 2-Halo-4-Substituted-5-Sulfamoyl-Benzoates as High Affinity and Selective Inhibitors of Carbonic Anhydrase IX” (International Journal of Molecular Sciences, 2021).
“And” between values parts separate entries of the source, which are not always exact repeats. Equal entries are not always repeated.

Columns and labels:
[1] = determination of pKa of the sulfonamide group by UV-VIS spectra at various pH; assay type: physicochemical; conditions: for f RSO2NH-, fraction of deprotonated sulfonamide: at pH 7.0, calculated from pKa; for pKa: calculated from spectra at various pH, 37 °C
CAII = CAII (Homo sapiens, UniProt P00918); assay: fluorescent thermal shift assay (FTSA), CAII; assay type: binding; conditions: 37 °C; for ΔGintr CAII: converted from Kd_intr, independent of pH; for ΔGobs CAII: converted from Kd_obs, pH 7.0, FTSA
CAIV = CAIV (Homo sapiens, UniProt P22748); assay: fluorescent thermal shift assay (FTSA), CAIV; assay type: binding; conditions: 37 °C; for ΔGintr CAIV: converted from Kd_intr, independent of pH; for ΔGobs CAIV: converted from Kd_obs, pH 7.0, FTSA
CAIV, sequence (P22748 19-312): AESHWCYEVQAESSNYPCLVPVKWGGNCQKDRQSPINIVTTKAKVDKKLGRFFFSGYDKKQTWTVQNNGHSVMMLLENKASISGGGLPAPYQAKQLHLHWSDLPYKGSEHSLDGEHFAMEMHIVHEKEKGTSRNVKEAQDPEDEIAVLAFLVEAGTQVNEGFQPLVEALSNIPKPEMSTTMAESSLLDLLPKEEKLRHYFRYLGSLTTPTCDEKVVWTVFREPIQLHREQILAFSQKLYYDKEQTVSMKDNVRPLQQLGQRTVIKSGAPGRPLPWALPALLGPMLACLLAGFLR

CAVI = CAVI (Homo sapiens, UniProt P23280); assay: fluorescent thermal shift assay (FTSA), CAVI; assay type: binding; conditions: 37 °C; for ΔGintr CAVI: converted from Kd_intr, independent of pH; for ΔGobs CAVI: converted from Kd_obs, pH 7.0, FTSA
CAVI, sequence (P23280 18-308): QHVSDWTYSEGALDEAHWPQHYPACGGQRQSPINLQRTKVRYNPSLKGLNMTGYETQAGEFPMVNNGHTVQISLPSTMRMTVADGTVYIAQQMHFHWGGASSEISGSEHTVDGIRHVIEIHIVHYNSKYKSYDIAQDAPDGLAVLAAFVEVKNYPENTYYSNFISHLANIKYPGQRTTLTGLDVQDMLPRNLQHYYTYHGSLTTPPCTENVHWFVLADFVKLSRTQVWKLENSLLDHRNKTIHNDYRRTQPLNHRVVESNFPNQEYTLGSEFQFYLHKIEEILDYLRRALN

CAXIV = CAXIV (Homo sapiens, UniProt Q9ULX7); assay: fluorescent thermal shift assay (FTSA), CAXIV; assay type: binding; conditions: 37 °C; for ΔGintr CAXIV: converted from Kd_intr, independent of pH; for ΔGobs CAXIV: converted from Kd_obs, pH 7.0, FTSA
CAXIV, sequence (Q9ULX7 16-337): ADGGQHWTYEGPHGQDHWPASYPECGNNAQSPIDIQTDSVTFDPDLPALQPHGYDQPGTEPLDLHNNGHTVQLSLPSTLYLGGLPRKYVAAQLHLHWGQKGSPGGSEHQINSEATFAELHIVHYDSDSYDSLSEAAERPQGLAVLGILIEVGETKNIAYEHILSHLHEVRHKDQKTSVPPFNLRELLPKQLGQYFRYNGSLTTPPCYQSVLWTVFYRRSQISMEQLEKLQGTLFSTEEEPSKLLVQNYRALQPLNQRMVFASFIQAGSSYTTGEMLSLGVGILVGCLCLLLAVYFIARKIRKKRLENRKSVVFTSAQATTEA

CAXIII = CAXIII (Homo sapiens, UniProt Q8N1Q1); assay: fluorescent thermal shift assay (FTSA), CAXIII; assay type: binding; conditions: 37 °C; for ΔGintr CAXIII: converted from Kd_intr, independent of pH; for ΔGobs CAXIII: converted from Kd_obs, pH 7.0, FTSA
CAXIII, sequence (Q8N1Q1 whole entry): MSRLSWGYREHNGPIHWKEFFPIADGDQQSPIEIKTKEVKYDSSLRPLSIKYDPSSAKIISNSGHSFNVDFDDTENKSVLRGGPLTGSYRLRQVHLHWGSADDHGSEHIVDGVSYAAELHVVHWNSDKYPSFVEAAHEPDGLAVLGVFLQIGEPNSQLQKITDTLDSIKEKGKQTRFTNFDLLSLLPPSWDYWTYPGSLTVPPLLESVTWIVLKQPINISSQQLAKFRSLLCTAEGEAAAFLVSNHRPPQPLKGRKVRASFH

CAXII [2] = target: T1, CAXII (Homo sapiens, UniProt O43570); assay: fluorescent thermal shift assay (FTSA), CAXII; assay type: binding; conditions: 37 °C; for ΔGintr CAXII: converted from Kd_intr, independent of pH; for ΔGobs CAXII: converted from Kd_obs, pH 7.0, FTSA
T1 sequence (O43570 25-354): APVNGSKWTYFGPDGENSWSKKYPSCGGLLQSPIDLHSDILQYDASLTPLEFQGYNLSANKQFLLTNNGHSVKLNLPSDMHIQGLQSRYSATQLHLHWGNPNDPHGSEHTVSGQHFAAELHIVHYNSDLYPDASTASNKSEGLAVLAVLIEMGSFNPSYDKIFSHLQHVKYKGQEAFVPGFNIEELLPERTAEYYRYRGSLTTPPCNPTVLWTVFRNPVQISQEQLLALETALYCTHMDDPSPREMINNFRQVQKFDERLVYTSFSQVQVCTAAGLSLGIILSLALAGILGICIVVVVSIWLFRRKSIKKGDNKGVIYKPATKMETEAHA

CAVB = CAVB (Homo sapiens, UniProt Q9Y2D0); assay: fluorescent thermal shift assay (FTSA), CAVB; assay type: binding; conditions: 37 °C; for ΔGintr CAVB: converted from Kd_intr, independent of pH; for ΔGobs CAVB: converted from Kd_obs, pH 7.0, FTSA
CAVB, sequence (Q9Y2D0 34-317): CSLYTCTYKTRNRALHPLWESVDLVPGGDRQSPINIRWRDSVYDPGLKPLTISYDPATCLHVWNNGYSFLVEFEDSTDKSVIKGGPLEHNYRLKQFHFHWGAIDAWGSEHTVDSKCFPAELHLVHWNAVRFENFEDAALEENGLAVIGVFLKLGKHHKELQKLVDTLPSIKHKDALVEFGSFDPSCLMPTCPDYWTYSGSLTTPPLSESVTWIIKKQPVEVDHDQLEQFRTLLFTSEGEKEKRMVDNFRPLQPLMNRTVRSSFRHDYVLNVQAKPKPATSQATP

CAIX = CAIX (Homo sapiens, UniProt Q16790); assay: fluorescent thermal shift assay (FTSA), CAIX; assay type: binding; conditions: for ΔGobs CAIX: pH 7
CAVII = CAVII (Homo sapiens, UniProt P43166); assay: fluorescent thermal shift assay (FTSA), CAVII; assay type: binding; conditions: 37 °C; for ΔGintr CAVII: converted from Kd_intr, independent of pH; for ΔGobs CAVII: converted from Kd_obs, pH 7.0, FTSA
CAVII, sequence (P43166 whole entry): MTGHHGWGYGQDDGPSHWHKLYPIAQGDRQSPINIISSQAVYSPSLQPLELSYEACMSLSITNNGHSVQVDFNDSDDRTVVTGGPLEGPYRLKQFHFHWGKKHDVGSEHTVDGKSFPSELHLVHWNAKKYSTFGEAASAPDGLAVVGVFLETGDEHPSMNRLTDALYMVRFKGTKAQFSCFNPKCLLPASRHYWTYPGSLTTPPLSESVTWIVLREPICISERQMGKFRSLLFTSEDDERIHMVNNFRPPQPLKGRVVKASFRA

[3] = solubility observed visually and in absorption spectra; assay type: physicochemical; set-up: key: low solubility, LS
CAVA = CAVA (Homo sapiens, UniProt P35218); assay: fluorescent thermal shift assay (FTSA), CAVA; assay type: binding; conditions: 37 °C; for ΔGintr CAVA: converted from Kd_intr, independent of pH; for ΔGobs CAVA: converted from Kd_obs, pH 7.0, FTSA
CAVA, sequence (P35218 39-305): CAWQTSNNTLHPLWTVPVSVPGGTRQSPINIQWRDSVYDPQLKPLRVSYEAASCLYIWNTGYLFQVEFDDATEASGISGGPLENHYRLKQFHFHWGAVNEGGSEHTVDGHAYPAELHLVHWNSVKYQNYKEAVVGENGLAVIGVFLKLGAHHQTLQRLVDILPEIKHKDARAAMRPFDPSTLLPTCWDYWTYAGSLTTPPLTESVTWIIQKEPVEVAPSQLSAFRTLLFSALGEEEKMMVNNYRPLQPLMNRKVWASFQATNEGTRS

CAI = CAI (Homo sapiens, UniProt P00915); assay: fluorescent thermal shift assay (FTSA), CAI; assay type: binding; conditions: 37 °C; for ΔGintr CAI: converted from Kd_intr, independent of pH; for ΔGobs CAI: converted from Kd_obs, pH 7.0, FTSA
CAI, sequence (P00915 whole entry): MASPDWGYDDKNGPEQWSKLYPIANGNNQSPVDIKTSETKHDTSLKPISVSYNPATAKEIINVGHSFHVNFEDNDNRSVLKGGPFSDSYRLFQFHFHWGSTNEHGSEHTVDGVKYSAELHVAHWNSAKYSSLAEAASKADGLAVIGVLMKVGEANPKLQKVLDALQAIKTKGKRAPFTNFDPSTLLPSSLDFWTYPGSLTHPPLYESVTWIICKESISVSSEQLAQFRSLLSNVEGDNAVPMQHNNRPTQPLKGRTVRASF

CAIII = CAIII (Homo sapiens, UniProt P07451); assay: fluorescent thermal shift assay (FTSA), CAIII; assay type: binding; conditions: 37 °C; for ΔGintr CAIII: converted from Kd_intr, independent of pH; for ΔGobs CAIII: converted from Kd_obs, pH 7.0, FTSA
CAIII, sequence (P07451 whole entry): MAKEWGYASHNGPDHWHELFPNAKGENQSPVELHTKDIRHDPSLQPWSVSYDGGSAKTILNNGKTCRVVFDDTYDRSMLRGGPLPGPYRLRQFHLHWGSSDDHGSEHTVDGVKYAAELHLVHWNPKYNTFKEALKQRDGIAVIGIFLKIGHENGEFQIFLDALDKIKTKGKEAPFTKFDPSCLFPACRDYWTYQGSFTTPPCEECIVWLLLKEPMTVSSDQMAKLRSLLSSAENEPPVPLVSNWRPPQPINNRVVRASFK

[4] = 37 °C
CAXII [5] = target: T1, CAXII; conditions: for ΔHintr CAXII: independent of pH and buffer; for ΔHobs CAXII: observed, sodium phosphate buffer pH 7.0, 37 °C, ITC

| Compound | f RSO2NH-, fraction of deprotonated sulfonamide [1] | ΔGintr CAII (CAII) | ΔGobs CAII (CAII) | ΔGintr CAIV (CAIV) | ΔGobs CAIV (CAIV) | ΔGintr CAVI (CAVI) | ΔGobs CAVI (CAVI) | ΔGintr CAXIV (CAXIV) | ΔGobs CAXIV (CAXIV) | ΔGobs CAXIII (CAXIII) | ΔGintr CAVB (CAVB) | ΔGobs CAVB (CAVB) | ΔGintr CAIX (CAIX) | ΔGobs CAIX (CAIX) | ΔGintr CAVII (CAVII) | ΔGobs CAVII (CAVII) | ΔGintr CAVA (CAVA) | ΔGobs CAVA (CAVA) | ΔGintr CAI (CAI) | ΔGobs CAI (CAI) | further results |
| --- | --- | --- | --- | --- | --- | --- | --- | --- | --- | --- | --- | --- | --- | --- | --- | --- | --- | --- | --- | --- | --- |
| COC(=O)c1cc(S(N)(=O)=O)c(Br)cc1Sc1ccccc1 [Compound 6a, Methyl 4-bromo-2-(phenylsulfanyl)-5-sulfamoylbenzoate] | 0.4% | -14 kcal/mol | -10.1 kcal/mol | -14.7 kcal/mol | -10.5 kcal/mol | -13.9 kcal/mol | -9.06 kcal/mol | -15.2 kcal/mol | -11.2 kcal/mol | -11.1 kcal/mol | -14.5 kcal/mol | -10.7 kcal/mol | -15.5 kcal/mol | -11.4 kcal/mol | -13.5 kcal/mol | -9.46 kcal/mol | -9.44 kcal/mol | -5.76 kcal/mol | -11.4 kcal/mol | -7.96 kcal/mol | ΔGintr CAXIII (CAXIII): -14.5 kcal/mol; ΔGintr CAXII (CAXII [2]): -14.9 kcal/mol; ΔGobs CAXII (CAXII [2]): -10.9 kcal/mol; solubility [3]: LS; ΔGintr CAIII (CAIII): ≥ -9.54 kcal/mol; ΔGobs CAIII (CAIII): ≥ -5.26 kcal/mol |
| COC(=O)c1cc(S(N)(=O)=O)c(Cl)cc1Sc1ccccc1 [Compound 5a, Methyl 4-chloro-2-(phenylsulfanyl)-5-sulfamoylbenzoate] | 0.4% | -14.5 kcal/mol | -10.6 kcal/mol | -15.3 kcal/mol | -11.1 kcal/mol | -14.4 kcal/mol | -9.51 kcal/mol | -14.9 kcal/mol | -10.9 kcal/mol | -10.9 kcal/mol | -13.2 kcal/mol | -9.37 kcal/mol | -16.4 kcal/mol | -12.2 kcal/mol | -14.4 kcal/mol | -10.3 kcal/mol | ≥ -8.91 kcal/mol | ≥ -5.26 kcal/mol | -11.2 kcal/mol | -7.77 kcal/mol | ΔGintr CAXII (CAXII [2]): -15.7 kcal/mol; ΔGobs CAXII (CAXII [2]): -11.7 kcal/mol; solubility [3]: LS |
| COC(=O)c1cc(S(N)(=O)=O)c(SCCc2ccccc2)cc1Cl [Compound 3d, Methyl 2-chloro-4-[(2-phenylethyl)sulfanyl]-5-sulfamoylbenzoate] | 0.3% and 0.25% | -13.8 kcal/mol | -9.61 kcal/mol | – | – | -14 kcal/mol | -8.8 kcal/mol | -14.7 kcal/mol | -10.4 kcal/mol | -10.5 kcal/mol | -11.2 kcal/mol | -7.1 kcal/mol | -15.7 kcal/mol | -11.2 kcal/mol | -14.2 kcal/mol | -9.94 kcal/mol | -9.54 kcal/mol | -5.59 kcal/mol | -10.7 kcal/mol | -6.93 kcal/mol | pKa [1]: 9.6; Δp_RSO2NH2H, protonation enthalpy of sulfonamide group [4]: -9.8 kcal/mol; ΔHintr CAXII (CAXII [5]; intrinsic, 37 °C): -12 kcal/mol; ΔHobs CAXII (CAXII [5]): -6.19 kcal/mol |
| COC(=O)c1cc(S(N)(=O)=O)c(S(=O)(=O)Cc2ccccc2)cc1Cl [Compound 7c, Methyl 4-benzylsulfonyl-2-chloro-5-sulfamoylbenzoate] | 0.2% | ≥ -9.78 kcal/mol | ≥ -5.28 kcal/mol | -12.2 kcal/mol | -7.43 kcal/mol | -10.9 kcal/mol | -5.5 kcal/mol | -11.9 kcal/mol | -7.34 kcal/mol | -5.47 kcal/mol | ≥ -9.66 kcal/mol | ≥ -5.26 kcal/mol | -13.4 kcal/mol | -8.65 kcal/mol | ≥ -9.8 kcal/mol | ≥ -5.26 kcal/mol | ≥ -9.46 kcal/mol | ≥ -5.26 kcal/mol | ≥ -9.27 kcal/mol | ≥ -5.26 kcal/mol | ΔGintr CAXIII (CAXIII): -9.51 kcal/mol; ΔGintr CAXII (CAXII [2]): -11.9 kcal/mol; ΔGobs CAXII (CAXII [2]): -7.34 kcal/mol; solubility [3]: LS; ΔGintr CAIII (CAIII): ≥ -10.1 kcal/mol; ΔGobs CAIII (CAIII): ≥ -5.26 kcal/mol |
| COC(=O)c1cc(S(N)(=O)=O)c(Cl)cc1SC1CCCCC1 [Compound 5b, Methyl 4-chloro-2-cyclohexylsulfanyl-5-sulfamoylbenzoate] | 0.4% | -14.8 kcal/mol | -10.9 kcal/mol | -14.4 kcal/mol | -10.2 kcal/mol | – | -9.49 kcal/mol | -15.8 kcal/mol | -11.8 kcal/mol | -11.4 kcal/mol | -15.5 kcal/mol | -11.7 kcal/mol | -15.7 kcal/mol | -11.5 kcal/mol | -14.9 kcal/mol | -10.9 kcal/mol | -11.3 kcal/mol | -7.65 kcal/mol | -12.6 kcal/mol | -9.2 kcal/mol | pKa [1]: 9.4; Δp_RSO2NH2H, protonation enthalpy of sulfonamide group [4]: -7.96 kcal/mol; -TΔSintr CAXII (CAXII [5]; intrinsic, 37 °C): -4.76 kcal/mol; ΔHintr CAXII (CAXII [5]; intrinsic, 37 °C): -10.4 kcal/mol; ΔHobs CAXII (CAXII [5]): -6.5 kcal/mol; N (ITC, observed fitted parameter) CAXII (CAXII [5]; single repeats, pH 7.0, 37 °C, Figure S8): 1.0 and 1.1; ΔGintr CAXIII (CAXIII): -14.8 kcal/mol; ΔGobs CAIII (CAIII): ≥ -5.26 kcal/mol |
| COC(=O)c1cc(S(N)(=O)=O)c(S(=O)(=O)CCc2ccccc2)cc1Cl [Compound 7d, Methyl 2-chloro-4-(2-phenylethylsulfonyl)-5-sulfamoylbenzoate] | 0.2% | ≥ -9.73 kcal/mol | ≥ -5.26 kcal/mol | ≥ -9.99 kcal/mol | ≥ -5.26 kcal/mol | -10.9 kcal/mol | -5.5 kcal/mol | ≥ -9.8 kcal/mol | ≥ -5.26 kcal/mol | -6.6 kcal/mol | ≥ -9.66 kcal/mol | ≥ -5.26 kcal/mol | -12.1 kcal/mol | -7.34 kcal/mol | ≥ -9.8 kcal/mol | ≥ -5.26 kcal/mol | ≥ -9.46 kcal/mol | ≥ -5.26 kcal/mol | -9.27 kcal/mol | – | ΔGintr CAXIII (CAXIII): -10.6 kcal/mol; ΔGintr CAXII (CAXII [2]): -10.9 kcal/mol; ΔGobs CAXII (CAXII [2]): -6.33 kcal/mol; solubility [3]: LS; ΔGintr CAIII (CAIII): ≥ -10.1 kcal/mol; ΔGobs CAIII (CAIII): ≥ -5.26 kcal/mol |
